This passage reports IC50 results from US20240083857A1, “2-Methyl-Quinazolines” (Bayer Pharma Aktiengesellschaft, priority 2017, published 2024).

The target of assay [1] is K-Ras^G12C : hSOS1 interaction (Homo sapiens, UniProt Q07889). Kind of assay: Biochemical assay 1: K-Ras^G12C interaction assay with hSOS1 (HTRF). It is filed as binding. As to conditions: read-out: Assay 1 (KRAS-SOS Interaction) activity expressed as IC50.
In assay [2] the target is Epidermal Growth Factor Receptor (EGFR) (Homo sapiens (Human), UniProt P00533). Kind of assay: EGFR kinase assay (TR-FRET). It is filed as biochemical. As to conditions: read-out: EGFR kinase inhibition IC50. In short, it runs like this: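 EGFR purified from A431 cells was preincubated with compound 15 min at 22° C in pH 7.0 Hepes buffer with MgCl2, MnCl2 and vanadate before reaction with a biotinylated peptide. After EDTA stop, phosphopeptide was detected by TR-FRET (anti-phosphotyrosine Tb-cryptate, streptavidin-XL665) as the 665/620 nm emission ratio.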
Background: TR-FRET usually uses a lanthanide donor and a delayed reading to cut background.

Counter-ions that a name gives are not always drawn. Like-named read-outs stand apart in the source and are kept apart here. Bounds are passed on as bounds.

For orientation: IC50 means the concentration at which inhibition is half-maximal.

Chain of Epidermal Growth Factor Receptor (EGFR) (P00533 25-1210): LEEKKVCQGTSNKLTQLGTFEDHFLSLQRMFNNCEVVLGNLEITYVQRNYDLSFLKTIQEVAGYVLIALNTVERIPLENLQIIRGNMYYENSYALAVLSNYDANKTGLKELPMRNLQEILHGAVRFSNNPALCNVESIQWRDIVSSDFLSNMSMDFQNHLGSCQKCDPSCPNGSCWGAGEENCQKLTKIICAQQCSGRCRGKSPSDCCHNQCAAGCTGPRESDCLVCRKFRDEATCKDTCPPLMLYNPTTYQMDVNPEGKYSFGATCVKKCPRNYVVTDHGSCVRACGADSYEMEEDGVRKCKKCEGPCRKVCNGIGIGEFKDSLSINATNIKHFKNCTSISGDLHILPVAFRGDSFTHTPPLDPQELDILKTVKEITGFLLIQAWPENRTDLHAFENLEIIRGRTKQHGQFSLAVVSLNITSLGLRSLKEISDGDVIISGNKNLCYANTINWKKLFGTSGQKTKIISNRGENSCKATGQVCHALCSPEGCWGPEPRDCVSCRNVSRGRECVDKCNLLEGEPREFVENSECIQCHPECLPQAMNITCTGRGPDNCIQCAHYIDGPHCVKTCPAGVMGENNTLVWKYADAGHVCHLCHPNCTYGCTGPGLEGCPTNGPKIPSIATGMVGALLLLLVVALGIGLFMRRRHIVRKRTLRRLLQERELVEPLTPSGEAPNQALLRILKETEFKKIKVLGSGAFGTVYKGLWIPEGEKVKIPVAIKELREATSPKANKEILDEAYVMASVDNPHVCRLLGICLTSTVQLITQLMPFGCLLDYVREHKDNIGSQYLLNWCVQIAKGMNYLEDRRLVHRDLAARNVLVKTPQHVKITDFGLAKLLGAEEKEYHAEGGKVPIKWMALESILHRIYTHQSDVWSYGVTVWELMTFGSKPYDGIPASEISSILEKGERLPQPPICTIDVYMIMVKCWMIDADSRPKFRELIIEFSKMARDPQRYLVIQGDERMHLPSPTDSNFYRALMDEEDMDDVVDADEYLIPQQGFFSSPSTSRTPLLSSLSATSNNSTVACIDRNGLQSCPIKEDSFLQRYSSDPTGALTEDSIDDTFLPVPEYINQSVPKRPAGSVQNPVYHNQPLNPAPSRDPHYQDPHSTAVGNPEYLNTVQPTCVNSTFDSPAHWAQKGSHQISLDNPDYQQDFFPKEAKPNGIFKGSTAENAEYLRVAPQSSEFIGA

Regarding `COc1cc2nc(C)nc(NC(C)c3ccc(-c4cccc(CN)c4)s3)c2cc1OC` (centres unmarked) [Example 265, N-[1-{5-[3-(aminomethyl)phenyl]thiophen-2-yl}ethyl]-6,7-dimethoxy-2-methylquinazolin-4-amine], the IC50 was 2770 nM in assay [1] and above 20 µM in assay [2] (values given in μM).
The corresponding values for `COc1cc2nc(C)nc(NC(C)c3cc(Br)cs3)c2cc1OC` (centres unmarked) [Example 264, N-[1-(4-bromothiophen-2-yl)ethyl]-6,7-dimethoxy-2-methylquinazolin-4-amine] are 5940 nM and above 20 µM.
For `COc1cc2nc(C)nc(NC(C)c3ccc(-c4ccc(F)cc4CNC(=O)c4ncc[nH]4)s3)c2cc1OC` (centres unmarked) [Example 293, N-[2-(5-{1-[(6,7-dimethoxy-2-methylquinazolin-4-yl)amino]ethyl}thiophen-2-yl)-5-fluorobenzyl]-1H-imidazole-2-carboxamide], in that order: 2750 nM and above 20 µM.
With `COc1cc2nc(C)nc(NC(C)c3nccc4sccc34)c2cc1OC` (centres unmarked) [Example 333, 6,7-dimethoxy-2-methyl-N-[1-(thieno[3,2-c]pyridin-4-yl)ethyl]quinazolin-4-amine], the values for the half-inhibitory concentration (IC50) in assay [1] and in assay [2] (unit inferred) were 13000 nM and 16.4 µM, respectively.
With `COc1cc2nc(C)nc(NC(C)c3ccc(-c4ccccc4CNCC(=O)c4c[nH]c5ccccc45)s3)c2cc1OC` (centres unmarked) [Example 277, 2-{[2-(5-{1-[(6,7-dimethoxy-2-methylquinazolin-4-yl)amino]ethyl}thiophen-2-yl)benzyl]amino}-1-(1H-indol-3-yl)ethanone], the results for the IC50 in assay [1] and in assay [2] (values given in μM) were 214 nM and above 20 µM, respectively.
For `COc1cc2nc(C)nc(NC(C)c3ccc(-c4ccc(F)cc4CNCc4nccn4C)s3)c2cc1OC` (centres unmarked) [Example 304, N-[1-{5-[4-fluoro-2-({[(1-methyl-1H-imidazol-2-yl)methyl]amino}methyl)phenyl]thiophen-2-yl}ethyl]-6,7-dimethoxy-2-methylquinazolin-4-amine], in that order: 417 nM and above 20 µM.
With `COc1cc2nc(C)nc(NC(C)c3ccc(-c4ccccc4CNCC(F)(F)F)s3)c2cc1OC` (centres unmarked) [Example 300, 6,7-di methoxy-2-methyl-N-{1-[5-(2-{[(2,2,2-trifluoroethyl)amino]methyl}phenyl)thiophen-2-yl]ethyl}quinazolin-4-amine], the IC50 in assay [1] is 3150 nM; in assay [2] (values given in μM), above 20 µM.
Take `COc1cc2nc(C)nc(N[C@H](C)c3cccc(-n4ccnc4)c3)c2cc1OC` [Example 340, N-{(1R)-1-[3-(1H-imidazol-1-yl)phenyl]ethyl}-6,7-dimethoxy-2-methylquinazolin-4-amine]: the IC50 is 344 nM in assay [1] and above 20 µM in assay [2] (values given in μM).
`COc1cc2nc(C)nc(N[C@H](C)c3cccc(-c4ccccc4CN)c3)c2cc1OC` [Example 258, N-{(1R)-1-[2′-(aminomethyl)biphenyl-3-yl]ethyl}-6,7-dimethoxy-2-methylquinazolin-4-amine]: the IC50 in assay [1] is 204 nM; in assay [2] (values given in μM), above 20 µM.
The corresponding values for `COc1cc2nc(C)nc(NC(C)c3ccc(-c4ccccc4CNc4cc[nH]n4)s3)c2cc1OC` (centres unmarked) [Example 302, 6,7-dimethoxy-2-methyl-N-[1-(5-{2-[(1H-pyrazol-3-ylamino)methyl]phenyl}thiophen-2-yl)ethyl]quinazolin-4-amine] are 787 nM and above 20 µM.
Turning to `COc1cc2nc(C)nc(NC(C)c3ccc(-c4ccccc4CN(C)C)s3)c2cc1OC` (centres unmarked) [Example 262, N-[1-(5-{2-[(dimethylamino)methyl]phenyl}thiophen-2-yl)ethyl]-6,7-dimethoxy-2-methylquinazolin-4-amine], the IC50 in assay [1] was 40.3 nM; in assay [2] (values given in μM) it was above 20 µM.
`COc1cc2nc(C)nc(NC(C)c3cc(-c4ccn(CCO)n4)cs3)c2cc1OC` (centres unmarked) [Example 273, 2-[3-(5-{1-[(6,7-dimethoxy-2-methylquinazolin-4-yl)amino]ethyl}thiophen-3-yl)-1H-pyrazol-1-yl]ethanol]: the IC50 is 2320 nM in assay [1] and above 20 µM in assay [2] (values given in μM).
As for `COc1cc2nc(C)nc(NC(C)c3ccc(-c4cnc5n4CCC5)s3)c2cc1OC` (single isomer, unassigned; enantiomer 1) [Example 328, N-{1-[5-(6,7-dihydro-5H-pyrrolo[1,2-a]imidazol-3-yl)thiophen-2-yl]ethyl}-6,7-dimethoxy-2-methylquinazolin-4-amine, Enantiomer 1], the IC50 was 142 nM in assay [1] and above 20 µM in assay [2] (values given in μM).
`COc1cc2nc(C)nc(NC(C)c3ccc(-c4ccccc4CNc4ccccn4)s3)c2cc1OC` (centres unmarked) [Example 301, 6,7-di methoxy-2-methyl-N-[1-(5-{2-[(pyridin-2-ylamino)methyl]phenyl}thiophen-2-yl)ethyl]quinazolin-4-amine]: the results for the concentration for half-maximal inhibition (IC50) in assay [1] and in assay [2] (values given in μM) were 799 nM and above 20 µM, respectively.
Take `COc1cc2nc(C)nc(NC(C)c3ccc(-c4ccccc4CN4CCNCC4)s3)c2cc1OC` (centres unmarked) [Example 305, 6,7-dimethoxy-2-methyl-N-[1-{5-[2-(piperazin-1-ylmethyl)phenyl]thiophen-2-yl}ethyl]quinazolin-4-amine hydrochloride]: the figures for the IC50 in assay [1] and in assay [2] (values given in μM) were 61.6 nM and above 20 µM, respectively.
The corresponding values for `COc1cc2nc(C)nc(NC(C)c3ccc(-c4ccccc4CN4CC[C@H]4CO)s3)c2cc1OC` (stereo partly drawn) [Example 318, {1-[(2S)-(5-{1-[(6,7-dimethoxy-2-methylquinazolin-4-yl)amino]ethyl}thiophen-2-yl)benzyl]azetidin-2-yl}methanol] are 171 nM and above 20 µM.
For `COc1cc2nc(C)nc(NC(C)c3ccc(-c4ccc(CN)o4)s3)c2cc1OC` (centres unmarked) [Example 275, N-[1-{5-[5-(aminomethyl)furan-2-yl]thiophen-2-yl}ethyl]-6,7-dimethoxy-2-methylquinazolin-4-amine], in that order: 2800 nM and above 20 µM.
As to `CCN(CC)Cc1ccccc1-c1ccc(C(C)Nc2nc(C)nc3cc(OC)c(OC)cc23)s1` (centres unmarked) [Example 288, N-[1-(5-{2-[(diethylamino)methyl]phenyl}thiophen-2-yl)ethyl]-6,7-dimethoxy-2-methylquinazolin-4-amine], the IC50 in assay [1] was 170 nM; in assay [2] (values given in μM), above 20 µM.
As to `COc1cc2nc(C)nc(NC(C)c3cccc4c3cnn4C)c2cc1OC` (centres unmarked) [Example 17, 6,7-dimethoxy-2-methyl-N-[1-(1-methyl-1H-indazol-4-yl)ethyl]quinazolin-4-amine], the IC50 in assay [1] is 270 nM; in assay [2] (values given in μM), above 20 µM.
In the case of `COc1cc2nc(C)nc(NC(C)c3ccc(-c4ccccc4CN(C)CC(F)F)s3)c2cc1OC` (centres unmarked) [Example 291, N-{1-[5-(2-{[(2,2-difluoroethyl)(methyl)amino]methyl}phenyl)thiophen-2-yl]ethyl}-6,7-dimethoxy-2-methylquinazolin-4-amine], the IC50 in assay [1] is 1120 nM; in assay [2] (values given in μM), above 20 µM.
Turning to `COc1cc2nc(C)nc(NC(C)c3ccc(-c4cscc4C#N)s3)c2cc1OC` (centres unmarked) [Example 287, 5-{1-[(6,7-dimethoxy-2-methylquinazolin-4-yl)amino]ethyl}-2,3′-bithiophene-4′-carbonitrile], the values for the IC50 in assay [1] and in assay [2] (values given in μM) were 5880 nM and above 20 µM, respectively.
Turning to `COc1cc2nc(C)nc(NC(C)c3ccc(-c4cccc5sc(C(N)=O)c(N)c45)s3)c2cc1OC` (centres unmarked) [Example 278, 3-amino-4-(5-{1-[(6,7-dimethoxy-2-methylquinazolin-4-yl)amino]ethyl}thiophen-2-yl)-1-benzothiophene-2-carboxamide], the figures for the IC50 in assay [1] and in assay [2] (values given in μM) were 12500 nM and above 20 µM, respectively.
Regarding `COc1cc2nc(C)nc(NC(C)c3ccc(-c4ccccc4CN(C)CC(F)(F)F)s3)c2cc1OC` (centres unmarked) [Example 321, 6,7-di methoxy-2-methyl-N-{1-[5-(2-{[methyl(2,2,2-trifluoroethyl)amino]methyl}phenyl)thiophen-2-yl]ethyl}quinazolin-4-amine], the figures for the IC50 in assay [1] and in assay [2] (values given in μM) were 14800 nM and above 20 µM, respectively.
On to `CNCc1ccccc1-c1cc(C(C)Nc2nc(C)nc3cc(OC)c(OC)cc23)cs1` (centres unmarked) [Example 263, 6,7-dimethoxy-2-methyl-N-[1-(5-{2-[(methylamino)methyl]phenyl}thiophen-3-yl)ethyl]quinazolin-4-amine], for which the IC50 is 237 nM in assay [1] and above 20 µM in assay [2] (values given in μM).
Take `COc1cc2nc(C)nc(N[C@H](C)c3cccc(-c4c(C)noc4C)c3)c2cc1OC` [Example 336, N-{(1R)-1-[3-(3,5-dimethyl-1,2-oxazol-4-yl)phenyl]ethyl}-6,7-dimethoxy-2-methyl-quinazolin-4-amine]: the values for the IC50 in assay [1] and in assay [2] (values given in μM) were 687 nM and above 20 µM, respectively.
The corresponding values for `COc1cc2nc(C)nc(NC(C)c3ccc(-c4ccc(Cl)cc4CN(C)C)s3)c2cc1OC` (centres unmarked) [Example 323, N-[1-(5-{4-chloro-2-[(dimethylamino)methyl]phenyl}thiophen-2-yl)ethyl]-6,7-dimethoxy-2-methylquinazolin-4-amine] are 39.5 nM and above 20 µM.
The corresponding values for `COc1cc2nc(C)nc(NC(C)c3ccc(-c4ccc(F)cc4CNC(=O)CNCC(F)(F)F)s3)c2cc1OC` (centres unmarked) [Example 295, N-[2-(5-{1-[(6,7-dimethoxy-2-methylquinazolin-4-yl)amino]ethyl}thiophen-2-yl)-5-fluorobenzyl]-N^2-(2,2,2-trifluoroethyl)glycinamide] are 980 nM and above 20 µM.
For `COc1cc2nc(C)nc(NC(C)c3ccc(-c4ccccc4CN4CCN(C)CC4)s3)c2cc1OC` (centres unmarked) [Example 308, 6,7-dimethoxy-2-methyl-N-[1-(5-{2-[(4-methylpiperazin-1-yl)methyl]phenyl}thiophen-2-yl)ethyl]quinazolin-4-amine], the IC50 in assay [1] was 260 nM; in assay [2] (values given in μM), above 20 µM.
